Assays:
[1] = cited from earlier work
[2] = Non-compartmental pharmacokinetics of midazolam and metabolites in plasma after discontinuation of MDZ infusion (LC-MS/MS); type: in vivo, human; details: for AUClast / AUCinf: relative concentration; for MRT inf: read-out: MRTinf (mean residence time); for MRT last: read-out: MRTlast (mean residence time)
Description: The PK parameters were obtained using a non-compartmental method with Phoenix WinNonlin (version 8.3.5; Certara, USA). […] The AUC from time 0 to infinity (AUCinf) was calculated as AUClast + Clast/λz, where Clast is the last measurable concentration and λz is the elimination rate constant. The mean residence time was calculated as […]. The estimated t1/2 was calculated from λz based on a previously reported equation[12].
All samples were immediately frozen and stored at –70 ℃ after centrifugation with 3,000 rpm for 10 min and then sent to the Nutrition Food Microbiology Laboratory at Chungnam National University (http://nfml.kr/) to determine the concentration of midazolam and its metabolites using liquid chromatography with tandem mass spectrometry analysis.
The sample preparation method was performed as previously described with some modifications. A 20 µL of sample was mixed with 180 µL of 80% methanol, followed by protein precipitation at 4 °C for 30 min. Subsequently, the supernatant was harvested and added to 1800 µL of distilled water. The pre-treated samples were loaded onto an Oasis HLB Vac RC cartridge (30 mg, 20 cc, Waters) that had been preconditioned with 6 mL of methanol and 6 mL of distilled water. The cartridge was washed with 6 mL distilled water and sequentially eluted with methanol (4 mL). The eluted samples were dried using an evaporator and resuspended with 0.2 mL of methanol for analysis.

[3] = Distribution (proportion of total relative concentration) of midazolam and metabolites in plasma after discontinuation of MDZ infusion; details: range over sampling times 0 to 24 h
Description: Serum samples for analyzing the plasma concentration of MDZ and its metabolites were obtained immediately (baseline) and at 4, 8, 12, and 24 h after the discontinuation of MDZ infusion.
The distribution of each compound was assessed by calculating its relative concentration as a ratio to the total sum of relative concentrations at each sampling time.

[4] = Awakening time and estimated midazolam concentration at awakening (simple linear regression); type: in vivo, human
Description: The primary outcome of this study was the distribution and elimination of MDZ and its metabolites over 24 h following the discontinuation of MDZ infusion after targeted temperature management (33 or 36℃). The secondary outcome was the association between the PK parameters and awakening time in a subgroup of patients who experienced neurological recovery.
We investigated the PK parameters for all compounds in each individual. […] Among these four patients, the mean of the estimated MDZ concentration was 16.8 ng/mL.
Figure 4 Simple linear regression analysis between the absolute concentration of midazolam and awakening time in the subgroup of awakened patients after post-resuscitation care (n = 7). […] The regression line (grid line) is followed the regression equation: Y = − 4.506 × X + 105.5.

[5] = after discontinuation of MDZ infusion, mean ± SD
[6] = plasma, 0 to 24 h after discontinuation of MDZ infusion, arithmetic mean ± SD
[7] = plasma, time 0 to infinity after discontinuation of MDZ infusion, mean ± SD
[8] = human, plasma, intravenous, after discontinuation of MDZ infusion, mean ± SD

| Compound | MRTinf (mean residence time) [2, 5] | MRTlast (mean residence time) [2, 5] | t1/2 (elimination half-life) [2, 5] | AUClast [2, 6] | AUCinf [2, 7] | further results |
| --- | --- | --- | --- | --- | --- | --- |
| O=C(O)[C@H]1O[C@@H](OCc2ncc3n2-c2ccc(Cl)cc2C(c2ccccc2F)=NC3)[C@H](O)[C@@H](O)[C@@H]1O [1-OH-MDZ-Glu, 1-hydroxymidazolam glucuronide] | 21.8 ± 26.8 h | 6.8 ± 2.4 h | 15.4 ± 19.9 h | 9193.0 ± 13,958.4 h*ppm | 14,027.8 ± 15,486.2 h*ppm | Pharmacological potency (sedation) [1]: < 6%; Potency for sedation [1]: 6–10% |
| OCc1ncc2n1-c1ccc(Cl)cc1C(c1ccccc1F)=NC2 [1-OH-MDZ, 1-hydroxymidazolam] | 10.5 ± 5.2 h | 6.0 ± 2.3 h | 8.1 ± 4.9 h | 1117.2 ± 1643.5 h*ppm | 1419.1 ± 1845.5 h*ppm | Proportion in total concentration [3]: 3.3–4.2%; Potency for sedation effect [1]: 60–63% |
| Cc1ncc2n1-c1ccc(Cl)cc1C(c1ccccc1F)=NC2O (stereo not drawn) [4-OH-MDZ, 4-hydroxymidazolam] |  |  |  | 172.5 ± 268.0 h*ppm | 204.7 ± 294.8 h*ppm | Potency for sedation [1]: 0–2%; MRT inf [2, 8]: 10 ± 4.8 h; MRT last [2, 8]: 5.6 ± 1.5 h; half-life ([2]; human, plasma, intravenous, after discontinuation of MDZ infusion, mean ± SD, read-out: t1/2 (elimination half-life) (converted)): 7.3 ± 3.8 h |
| midazolam glucuronide [MDZ-Glu] | 16.2 ± 24.1 h | 5.8 ± 1.9 h |  |  |  |  |
| dihydroxymidazolam [Di-OH-MDZ] | 21.0 ± 19.8 h | 6.4 ± 2.5 h | 14.5 ± 13.7 h | 38.2 ± 49.8 h*ppm | 56.2 ± 52.1 h*ppm |  |
| di-hydroxymidazolam glucuronide [Di-OH-MDZ-Glu] | 19.2 ± 13.0 h | 6.4 ± 2.1 h | 14.3 ± 9.6 h | 187.4 ± 272.0 h*ppm | 200.2 ± 307.1 h*ppm |  |
| Cc1ncc2n1-c1ccc(Cl)cc1C(c1ccccc1F)=NC2O[C@@H]1O[C@H](C(=O)O)[C@@H](O)[C@H](O)[C@H]1O (stereo partly drawn) [4-OH-MDZ-Glu, 4-hydroxymidazolam glucuronide] | 7.9 ± 1.4 h | 6.4 ± 2.2 h | 5.4 ± 0.7 h | 29.8 ± 24.4 h*ppm | 33.3 ± 34.3 h*ppm |  |
| Cc1ncc2n1-c1ccc(Cl)cc1C(c1ccccc1F)=NC2 [MDZ, midazolam] |  |  | 6.2 ± 3.9 h |  |  | concentration at 16.6 h ([4]; human, plasma, intravenous, 0.15 mg/kg/h, from regression equation Y = − 4.506 × X + 105.5 at 16.6 h, awakened patients n = 7, read-out: Estimated concentration of midazolam at the subgroup awakening time): 30.7 ng/mL; Mean of the estimated MDZ concentration at awakening time ([4]; individual regression analysis, four out of seven awakened patients): 16.8 ng/mL; Awakening time in the subgroup after discontinuation of the midazolam infusion ([4]; subgroup of awakened patients n = 7): 16.6 h; Awaken time after discontinuation of midazolam intravenous infusion ([4]; subject #1): 9.6 h; Estimated midazolam concentration at awaken time ([4]; subject #1): 32.3 ng/mL; Awaken time after discontinuation of midazolam intravenous infusion ([4]; subject #2): 10.4 h; Estimated midazolam concentration at awaken time ([4]; subject #2): 20.8 ng/mL; Awaken time after discontinuation of midazolam intravenous infusion ([4]; subject #3): 9.6 h; Estimated midazolam concentration at awaken time ([4]; subject #3): 2.2 ng/mL; Awaken time after discontinuation of midazolam intravenous infusion ([4]; subject #4): 7.1 h; Estimated midazolam concentration at awaken time ([4]; subject #4): 11.9 ng/mL; Proportion in total concentration [3]: 21.2–38.4%; AUC(0-t) ([2]; human, intravenous, plasma, 0 to 24 h after discontinuation of MDZ infusion, absolute concentration, arithmetic mean ± SD): 1770 ± 2740 ng·h/mL; AUC(0-inf) ([2]; human, intravenous, plasma, time 0 to infinity after discontinuation of MDZ infusion, absolute concentration, mean ± SD): 2110 ± 3050 ng·h/mL; MRT inf [2, 8]: 8.2 ± 5.2 h; MRT last [2, 8]: 4.9 ± 1.6 h |
